Consider 2 molecules from patent US20100144786A1, “QUINOLINE DERIVATIVES AS CRTH2 RECEPTOR LIGANDS” (priority 2007, published 2010).

SMILES strings stand for the structures.

In this assay the target is T1, CRTH2 receptor (Homo sapiens, UniProt Q9Y5Y4).
T1 construct: expressed in transfected cells; host or cells: Human embryonic kidney (HEK) cells, membranes
T1 sequence (Q9Y5Y4 1-395): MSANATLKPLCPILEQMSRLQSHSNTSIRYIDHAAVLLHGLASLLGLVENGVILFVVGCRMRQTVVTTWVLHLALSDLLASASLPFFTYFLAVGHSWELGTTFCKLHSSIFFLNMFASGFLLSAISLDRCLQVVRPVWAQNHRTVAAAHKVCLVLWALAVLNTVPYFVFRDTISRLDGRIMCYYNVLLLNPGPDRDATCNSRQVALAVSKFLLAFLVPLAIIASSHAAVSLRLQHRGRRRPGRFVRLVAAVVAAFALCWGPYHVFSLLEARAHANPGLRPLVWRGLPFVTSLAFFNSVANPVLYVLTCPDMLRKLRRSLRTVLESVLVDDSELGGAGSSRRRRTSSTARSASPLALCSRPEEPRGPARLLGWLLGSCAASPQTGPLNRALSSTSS
The assay is described as follows: CRTH2 radioligand binding assay ([3H]-PGD2 displacement, SPA). The conditions noted are these: HEK cell membranes expressing the CRTH2 receptor, 1 nM [3H]-PGD2. The protocol: Compounds of the invention were tested using the following biological test methods to determine their ability to displace PGD2 from the CRTH2 receptor and for their ability to antagonise the functional effects of PGD2 at the CRTH2 receptor.
The receptor binding assay is performed in a final volume of 200 μl binding buffer [10 mM BES (pH 7.4), 1 mM EDTA, 10 mM manganese chloride, 0.01% BSA] and 1 nM [^3H]-PGD2 (Amersham Biosciences UK Ltd). Ligands are added in assay buffer containing a constant amount of DMSO (1% by volume). Total binding is determined using 1% by volume of DMSO in assay buffer and non-specific binding is determined using 10 μM of unlabeled PGD2 (Sigma). Human embryonic kidney (HEK) cell membranes (3.5 μg) expressing the CRTH2 receptor are incubated with 1.5 mg wheatgerm agglutinin SPA beads and 1 nM [^3H]-PGD2 (Amersham Biosciences UK Ltd) and the mixture incubated for 3 hours at room temperature. Bound [^3H]-PGD2 is detected using a Microbeta TRILUX liquid scintillation counter (Perkin Elmer). Compound IC50 value is determined using a 6-point dose response curve in duplicate with a semi-log compound dilution series. IC50 calculations are performed using Excel and XLfit (Microsoft), and this value is used to determine a Ki value for the test compound using the Cheng-Prusoff equation.

As a reminder, the IC50 is the midpoint of a concentration-inhibition curve. A higher IC50 goes with lower potency. `CCc1nc2c(F)ccc(OCC(=O)O)c2c(OC(F)F)c1Cc1ccc(C#N)cc1` [Example 1, [3-(4-cyanobenzyl)-4-difluoromethoxy-2-ethyl-8-fluoroquinolin-5-yloxy]acetic acid] displayed an IC50 of 6.1 nM. With `CCc1nc2c(F)ccc(OCC(=O)O)c2c(OC(F)F)c1Cc1ccc(Br)cc1` [Example 2, [3-(4-bromobenzyl)-4-difluoromethoxy-2-ethyl-8-fluoroquinolin-5-yloxy]acetic acid], the IC50 was 7.5 nM.
